Reference: patent US11331364B2, “Use for JNK inhibitor molecules for treatment of various diseases” (Xigen Inflammation Ltd., priority 2014, dated 2022)
Several values for one entry are separate records, joined by “and”; a condition that tells them apart may be missing. Identical values can stand only once. Square brackets hold non-standard residues; d marks the D form. Peptide text beside a SMILES is read from it.

What was measured:
[1] = tested on: primary human T-cells; experiment: IL-2 secretion by primary human T-cells; format: cell-based
Text: The JNK inhibitors used are indicated by their SEQ ID NO: 172 and 197.

[2] = dissolved in 0.9% NaCl, up to 0.4 mg/ml
Text: To receive three different doses (cf. above, groups table) it has been serially diluted (1:10 fold).

[3] = tested on: rat model of kidney bilateral ischemia reperfusion; experiment: Kidney bilateral ischemia reperfusion, tubular histological scores, Sprague-Dawley rats; format: in vivo
Description: Male Sprague-Dawley rats weighing 200-250 g at delivery were used (Charles River Laboratories, L'Arbresle, France). Animals were delivered to the laboratory at least 5 days before the experiments during which time they were acclimatized to laboratory conditions. This study included 3 groups of 11-12 rats each, as follow:
The protocol of warm renal ischemia was similar to that previously described (Pechman K R et al., 2009). Briefly, under general anesthesia (pentobarbital; 60 mg/kg, i.p. and atropine; 1 mg/kg, i.p.), both renal pedicles were isolated and clamped for 40 minutes using atraumatic clamps. After this time, clamps were released to start reperfusion. Animals were maintained at 37° C. using a thermo-regulated system (TCAT-2LV Controller, Physitemp Instruments, Clifton, N.J., USA) during the surgery. All the animals were sacrificed 24 hours after the release of both vascular clamps (reperfusion). Sham-operated animals underwent the same surgical procedure without clamping of the kidney vessels.
XG-104 or vehicle (0.9% NaCl) were administered into the tail vein (i.v.) at the dose of 2 mg/kg twenty minutes after the release of the second vascular clamp. Intravenous administrations into the tail vein were performed using the volume of 1 mL/kg.
After sacrifice, kidneys were removed, cleaned from all connective tissue and capsule and weighted on an electronic balance (VWR, France). One kidney was transferred in formalin solution 10% (Sigma Aldrich, France) for at least 24 h and then transferred in ethanol 70% for further histological analysis performed by Histalim (Montpellier, France). Right and left kidneys were randomly chosen. Kidney samples were fixed in 10% formalin during 72 hours, transferred into 70% ethanol, then embedded in paraffin blocks by Histalim (Montpellier, France). One longitudinal section (3 to 5 µm) was made per block. Kidney sections of paraffin embedded tissue were stained by hematoxylin and eosin (H&E). All the slides were digitalized at ×20 magnitude using Nanozoomer 2.0 HT from Hamamatsu (Hamamatsu, Japan). Each tissue section was examined histologically in a blinded manner to determine if tubular changes were present. The severity of each finding was then graded as follows:
Tubular damage score consisted of either degeneration/necrosis, tubular epithelial vacuolation, regeneration (basophil tubules), and tubular cast: […]

[4] = tested on: acute CYP-induced cystitis in female Sprague-Dawley rats; experiment: Cyclophosphamide-induced acute cystitis, intravenous treatment, visceral pain; format: in vivo, rat; settings: 2 mg/kg, i.v.; 24 h after CYP
Description: The aim of the present study was to evaluate the effects of intravenous treatment with XG-104 (2 mg/kg) on urinary bladder pain in acute CYP-induced cystitis in female Sprague-Dawley rats. This preclinical model is well-used to test therapeutic approaches for the treatment of interstitial cystitis/painful bladder syndrome (IC/PBS).
Adult female Sprague-Dawley rats (Janvier Labs, Le Genest Saint Isle, France), weighing 215±20 g at the beginning of the experiments, were used. Animals were acclimatized to the laboratory conditions for at least 3 days before the start of any experiments. The animals were allocated to the following four experimental groups (n=10 animals per group):
To induce acute cystitis, a single i.p. injection of CYP at a dose of 150 mg/kg in a final volume of 5 mL/kg was performed. Control rats received physiological saline under the same experimental conditions as CYP (final volume of 5 mL/kg, i.p.).
On the day of each experiment, weight of rats was recorded.
Assessment of referred visceral pain using von Frey filaments: Standardized conditions including fixed time-of-day (a.m. to minimize the potential circadian variations in the behaviours responses) and single-experimenter testing of all animals were applied to minimize variability behavior-based pain testing. Visceral pain including allodynia and hyperalgesia was evaluated by applying to the lower abdomen, close to the urinary bladder, a set of 8 calibrated von Frey filaments of increasing forces (1, 2, 4, 6, 8, 10, 26 and 60 g) with an interstimulus interval of 5 seconds. Prior testing, the abdominal area designed for mechanical stimulation of each animal was shaved. Animals were then placed on a raised wire mesh floor under individual transparent Plexiglas box and acclimatized for at least 30 minutes before starting the von Frey test. Filaments were then applied 1-2 seconds through the mesh floor with enough strength to cause the filament to slightly bend. Each filament was tested 3 times. Care was taken to stimulate different areas within the lower abdominal region in the vicinity of the urinary bladder to avoid desensitization.
The study design differs from that of Example 24 (cf. FIG. 50 A) only in the route of administration (intravenously instead of intravesically) and the doses as specified above. Birefly, acute cystitis was induced by CYP injection (i.p.) at Do (as described above). […]

[5] = 2 mg/kg i.v. after reperfusion, 24 hours
[6] = 2 mg/kg i.v. after reperfusion, 24 hours, listed as XG-104

Q: With CC(C)C[C@H](NC(=O)[C@H](CC(N)=O)NC(=O)[C@H](CC(C)C)NC(=O)[C@@H](NC(=O)[C@@H](C)NC(=O)[C@@H]1CCCN1C(=O)[C@H](CCCNC(=N)N)NC(=O)[C@@H](CCCCN)NC(=O)[C@@H]1CCCN1C(=O)[C@H](CCCNC(=N)N)NC(=O)[C@@H](CCCNC(=N)N)NC(=O)[C@H](CCCNC(=N)N)NC(=O)[C@H](CCCNC(=N)N)NC(=O)[C@H](CCC(N)=O)NC(=O)[C@@H](CCCNC(=N)N)NC(=O)[C@H](CCCNC(=N)N)NC(=O)[C@H](CCCCN)NC(=O)[C@H](CCCCN)NC(=O)[C@H](N)CCCNC(=N)N)[C@@H](C)O)C(=O)N[C@H](Cc1ccccc1)C(N)=O [SEQ ID NO: 172, rKKRrQRRrRPkRPaTLNLf] (H-[dR]KKR[dR]QRR[dR]RP[dK]RP[dA]TLNL[dF]-NH2; N-terminus assumed) as the molecule, how does the “IL-2 secretion in response to CD3/CD28 stimulation” value [1] read?
A: The value was “blocks IL-2 secretion”.

Q: What about the “IL-2 secretion in response to PMA/Ionomycin” value [1] of the same molecule?
A: Its value is “blocks IL-2 secretion”.

Q: What about the solubility [2] of the same molecule?
A: Its solubility is “readily soluble and did not fall out of solution”.

Q: What about the “animals with degeneration/necrosis score of 1” value [3, 5] of the same molecule?
A: The value was 1/11.

Q: And the “total tubular score (mean)” value [3, 5]?
A: The value was 6.00±1.26.

Q: What about the “animals with degeneration/necrosis score of 4” value [3, 6] of the same molecule?
A: Its value is 1/12 and 1/11.

Q: What about the “mean basophilic tubule score” value [3, 6] of the same molecule?
A: The value was 1.33±0.65 and 1.73±0.47.

Q: What about the “mean tubular epithelial degeneration/necrosis score” value [3, 6] of the same molecule?
A: The value was 2.67±0.65 and 2.18±0.75.

Q: What about the tubular damages ([3]; 2 mg/kg i.v., vs IR/Vehicle) of the same molecule?
A: Its tubular damages is “significant beneficial effects on tubular damages”.

Q: What about the “AUC 1-8 g (allodynia) vs vehicle” value [4] of the same molecule?
A: The value was “significantly decreased”.

Q: What about the “AUC 8-60 g (hyperalgesia) vs vehicle” value [4] of the same molecule?
A: Its value is “significantly reduced”.

Q: And the “nociceptive scores vs vehicle” value [4]?
A: Its value is “significantly decreased”.

Q: What about the “nociceptive threshold vs vehicle” value [4] of the same molecule?
A: Its value is “significantly increased”.
